Patent US4368194A, “Pharmacologically active amine boranes” (The United States of America as represented by the …, priority 1981, dated 1983)

Tests used:
[1] = tested on: carrageenan induced edema in mouse foot pads; assay: Anti-inflammatory screen (carrageenan induced foot edema); format: in vivo, mice
Outline: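 Male CF1 mice (~30 g) given 10 mg/kg i.p. in 0.05% polysorbate 80-water, 3 hr and 30 min before 0.05 ml 2% carrageenan injected into the right hind plantar surface, with saline in the left foot as baseline. Feet excised at the ankle after 3 hr and weight increase measured.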

CF1 male mice = assay: Writhing reflex (acetic acid); format: in vivo
Outline: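 CF1 male mice were dosed with test drug at 20 mg/kg i.p. 20 min before 0.5 ml of 0.6% acetic acid. Abdominal stretches with hind-limb extension were counted over 10 min, starting 5 min after acid.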

Male Sprague Dawley rats = assay: Chronic adjuvant arthritic screen; format: in vivo
Method: Male Sprague Dawley rats (about 160 g) were injected at the base of the tail with 0.2 ml of solution of killed and dried Mycobacterium butyricum and digitonin in mineral oil (see Waksman et al., J. Immunol., 85, 403 1960). Test drugs were administered intraperitoneally commencing on day 3 through day 20 at 2.5 mg/kg/day. Animals were sacrificed on day 21, and the feet were excised and weighed.

Sprague Dawley rats [2] = assay: Anti-pyretic screen; format: in vivo
Method: Sprague Dawley rats (about 200 g) were administered 2 ml of a 44% solution of Baker's yeast subcutaneously (see Roszkowski et al., supra) 18 hr prior to the injection of drugs at 2.5 or 5 mg/kg intraperitoneally resulting in an elevation of 3.46° F. Alternatively, rats were administered 0.25 mg killed and dried Mycobacterium butyricum (Difco) (see Randall et al., Arch int Pharmacodyn et De Ther, 220, 94 1976) subcutaneously prior to the administration of drugs. Rectal temperatures were taken immediately prior to and 2, 4, and 6 hr after drug administration.

Sprague Dawley rats [3] = assay: Red and white blood cell counts after 3 weeks dosing; format: in vivo; details: dosing for three weeks intraperitoneally, rats
Text: Hematocrits were also obtained.

Acid phosphatase [4] = assay: Lysosomal free acid phosphatase activity, liver homogenate; format: biochemical, rats; details: 5 μmoles, in vitro; 20 min
Outline: (§1)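 Percent free enzyme activity was calculated against total activity released by 0.02% detergent. Drug (5 μmoles, 1% CMC) was incubated 20 min with rat liver homogenate (sucrose/EDTA, pH 7.2) at pH 5.0 acetate. Substrates: β-glycerol phosphate for phosphatase (phosphate read-out), azocasein for cathepsin (366 nm).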

Cathepsin [5] = assay: Lysosomal free cathepsin activity, liver homogenate; format: biochemical, rats; details: 5 μmoles
Outline: as §1

Acid phosphatase [6] = assay: Lysosomal free acid phosphatase activity, PMNs; format: cell-based; details: 5 μmoles
Outline: (§2)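 Glycogen-elicited peritoneal PMNs, or liver homogenate, incubated with 5 μmoles test drug in 1% CMC for 60 or 20 min at pH 5.0. Acid phosphatase: 0.1 M β-glycerol phosphate, inorganic phosphate read; cathepsin: 2% azocasein, acid-soluble peptides at 366 nm. Free activity expressed as percent of detergent-released total.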

Cathepsin [7] = assay: Lysosomal free cathepsin activity, PMNs; format: cell-based; details: 5 μmoles, in vitro; 60 min
Outline: as §2

cAMP levels in PMNs = assay: Cyclic-3',5'-adenosine monophosphate levels (cAMP) in PMNs; format: cell-based; details: 1 h
Outline: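 Glycogen-elicited peritoneal neutrophils in MEM with 10% FCS, pH 7.4, exposed to test drugs at 5μ moles for 1 hr at 37° C; stopped with 6% trichloroacetic acid. cAMP measured by radioimmunoassay with 3H-cAMP tracer, expressed as p mole/10^7 PMNs.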

[8] = molecular target: T1, prostaglandin synthetase from beef seminal vesicle (Bos taurus, UniProt O62664); assay: Prostaglandin synthetase activity; format: biochemical; details: 10^-6 M
T1 construct: purchased; host or cells: beef seminal vesicle
T1 sequence (O62664 25-600): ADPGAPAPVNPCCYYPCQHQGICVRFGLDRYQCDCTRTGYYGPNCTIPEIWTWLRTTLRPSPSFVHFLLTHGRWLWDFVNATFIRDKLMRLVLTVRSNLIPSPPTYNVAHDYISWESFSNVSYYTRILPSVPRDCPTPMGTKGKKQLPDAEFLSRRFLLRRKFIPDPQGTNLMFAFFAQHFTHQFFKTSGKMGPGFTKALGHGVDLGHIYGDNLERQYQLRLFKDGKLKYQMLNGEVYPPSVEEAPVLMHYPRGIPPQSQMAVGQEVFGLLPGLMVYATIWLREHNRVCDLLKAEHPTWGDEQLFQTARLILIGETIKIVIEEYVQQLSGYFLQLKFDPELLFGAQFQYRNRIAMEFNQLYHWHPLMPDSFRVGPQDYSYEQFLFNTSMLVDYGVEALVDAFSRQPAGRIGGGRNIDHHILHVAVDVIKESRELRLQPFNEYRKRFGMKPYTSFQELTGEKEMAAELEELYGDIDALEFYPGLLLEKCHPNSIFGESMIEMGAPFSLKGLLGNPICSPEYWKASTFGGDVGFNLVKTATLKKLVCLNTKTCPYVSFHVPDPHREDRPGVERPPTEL
Method: After 1 hr at 37° C. the reaction was stopped with 1 N HCl and extracted with ethyl ether and evaporated. […] The plates were dried and developed in iodine vapor and with the use of prostaglandin standards the appropriate areas were scraped and counted for ^3 H content. Indometacin was used as a standard at 10^-4 M concentration. Test drugs were used at 10^-6 M.

liver mitochondria [9] = assay: Oxidative phosphorylation, succinate as substrate; format: biochemical, rats; details: 5 μmoles
Outline: (§3)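 Basal and ADP-stimulated respiration of 10% liver homogenates, with succinate (90 μmoles) or α-ketoglutarate (60 μmoles) as substrate, in sucrose/KCl/K2HPO4 medium. Test compounds at 5 μmoles in 1% CMC in 1.8 ml total. Rate given as μl O2 consumed/hr/mg wet liver weight.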

liver mitochondria [10] = assay: Oxidative phosphorylation, α-ketoglutarate as substrate; format: biochemical, rats; details: 5 μmoles
Outline: as §3

## C[N+](C)(C)[BH2-]C#N [Compound V, trimethylamine-cyanoborane]
[1]; 10 mg/kg × 2 intraperitoneally, mice
  Anti-inflammatory Screen: 42 % Control
[1]; text summary of Table II
  inhibition of the carrageenan induced edema in mouse foot pads: at least 50%
CF1 male mice; 20 mg/kg intraperitoneally, mice
  Writhing Reflex: 18 % Control
CF1 male mice; text summary of Table II
  inhibition of the writhing reflex: 80%
Male Sprague Dawley rats; 1.25 mg/kg/day intraperitoneally
  inhibition in the rat induced arthritic screen: 75%
Male Sprague Dawley rats; 5 mg/kg/day intraperitoneally
  inhibition in the rat induced arthritic screen: 100%
Male Sprague Dawley rats; 10 mg/kg/day intraperitoneally
  inhibition in the rat induced arthritic screen: 100%
Sprague Dawley rats [2]; 5 mg/kg
  inhibition of elevated body temperature: no inhibition
Sprague Dawley rats [2]; 10 mg/kg
  inhibition of elevated body temperature: no inhibition
Sprague Dawley rats [3]
  alteration of the red blood or white blood cell count/cu mm: no alteration
Acid phosphatase [4]
  Liver % Free Acid Phosphatase Activity, pH5: 69 ± 4 % Control
Cathepsin [5]
  inhibition of free proteolytic cathepsin activity of liver: 100%
Cathepsin [5]; in vitro, 20 min
  Liver % Free Cathepsin Activity, pH5: 0 ± 2 % Control
Acid phosphatase [6]
  inhibition of free acid phosphatase activity in PMNs: 65%
Acid phosphatase [6]; in vitro, 60 min
  PMNs % Free Acid Phosphatase Activity, pH5: 35 ± 5 % Control
Cathepsin [7]
  PMNs % Free Cathespin Activity, pH5: 4 ± 2 % Control
cAMP levels in PMNs; pH 7.4, read-out: PMNs cAMP Level
  activity at 5 µmol: 245%
cAMP levels in PMNs; read-out: increase of cyclic adenosine monophosphate levels in PMNs
  activation at 5 µmol: 145%
[8]; read-out: inhibition of prostaglandin synthesis
  inhibition at 1 µM: > 30%
[8]; 1 h, read-out: Prostaglandin Synthesis
  activity at 1 µM: 59 ± 6%
Liver mitochondria [9]; ADP stimulated respiration
  Oxidative Phosphorylation Succinate State 3: 51 ± 20 % Control
Liver mitochondria [9]; basal respiration
  Oxidative Phosphorylation Succinate State 4: 133 ± 20 % Control
Liver mitochondria [10]
  both states 3 and 4 respiration with α-ketoglutarate: inhibited
Liver mitochondria [10]; ADP stimulated respiration
  Oxidative Phosphorylation α Ketoglutarate State 3: 42 ± 9 % Control
Liver mitochondria [10]; basal respiration
  Oxidative Phosphorylation α Ketoglutarate State 4: 85 ± 21 % Control
